Results reported in patent US20110263699A1 (priority 2002, published 2011).
Structures can show the parent of a compound that is named as a salt.

What was measured:
μ-Opioid receptor [1] = target: μ-Opioid receptor (Rattus norvegicus, UniProt P33535); assay: μ-Opioid receptor binding (rat)
NA uptake = NA uptake (Homo sapiens, UniProt P23975); assay: biochemical; conditions: read-out: NA uptake inhibition Ki values
5HT uptake = 5HT uptake (Homo sapiens, UniProt P31645); assay: biochemical; conditions: read-out: 5HT uptake inhibition Ki values
duration of immobility = assay: Tail suspension test on mice; format: in vivo
Description: Rodents left hanging by the tail rapidly become immobile. Antidepressants reduce the duration of the immobility, while tranquilizers prolong the duration of the immobility. […] Several mice were investigated in parallel and the duration of immobility determined. […] 10-20 mice were investigated per group. […] In this behavioural model, antidepressants, as also in other behavioural models, lead to a shortening of the immobility phase, while opioids such as morphine prolong the immobility phase.

μ-Opioid receptor [2] = target: T1, μ-Opioid receptor (Homo sapiens, UniProt P35372); assay: μ-Opioid receptor binding (species not given)
Target sequence in this assay (P35372 whole entry, species assumed): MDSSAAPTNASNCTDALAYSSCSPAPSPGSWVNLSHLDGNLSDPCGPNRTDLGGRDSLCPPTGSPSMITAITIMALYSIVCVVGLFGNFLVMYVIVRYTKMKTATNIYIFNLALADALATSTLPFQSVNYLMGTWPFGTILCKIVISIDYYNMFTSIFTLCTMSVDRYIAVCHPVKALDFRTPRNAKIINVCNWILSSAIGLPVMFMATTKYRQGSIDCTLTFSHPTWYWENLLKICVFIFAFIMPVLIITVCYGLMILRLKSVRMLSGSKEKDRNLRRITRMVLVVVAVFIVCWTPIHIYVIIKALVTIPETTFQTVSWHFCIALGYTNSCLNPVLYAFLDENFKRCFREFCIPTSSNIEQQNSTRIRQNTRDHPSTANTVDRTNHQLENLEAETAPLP

μ-Opioid receptor [3] = target: T1, μ-Opioid receptor; assay: μ-Opioid receptor binding (human)
Target sequence in this assay (P35372 whole entry): as the sequence (P35372 whole entry, species assumed) above

[4] = 4.64 mg/kg i.p., 30 minutes before the test

Sequence of NA uptake (P23975 whole entry): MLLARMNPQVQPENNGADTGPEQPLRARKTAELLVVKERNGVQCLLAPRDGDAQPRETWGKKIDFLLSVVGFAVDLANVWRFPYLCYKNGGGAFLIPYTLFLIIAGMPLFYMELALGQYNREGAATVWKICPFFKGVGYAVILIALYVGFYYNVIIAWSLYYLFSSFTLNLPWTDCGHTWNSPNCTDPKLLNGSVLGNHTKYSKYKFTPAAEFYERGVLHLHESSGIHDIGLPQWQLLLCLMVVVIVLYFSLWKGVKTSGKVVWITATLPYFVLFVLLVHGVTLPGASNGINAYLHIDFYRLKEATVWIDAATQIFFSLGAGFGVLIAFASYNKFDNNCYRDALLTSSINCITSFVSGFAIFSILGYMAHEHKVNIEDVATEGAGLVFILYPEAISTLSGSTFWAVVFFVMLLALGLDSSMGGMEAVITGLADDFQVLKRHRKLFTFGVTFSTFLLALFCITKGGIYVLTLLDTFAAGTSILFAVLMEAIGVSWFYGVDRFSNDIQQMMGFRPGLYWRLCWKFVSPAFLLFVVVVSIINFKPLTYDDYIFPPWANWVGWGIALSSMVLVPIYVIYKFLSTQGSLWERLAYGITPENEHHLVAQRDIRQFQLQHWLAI
Sequence of 5HT uptake (P31645 whole entry): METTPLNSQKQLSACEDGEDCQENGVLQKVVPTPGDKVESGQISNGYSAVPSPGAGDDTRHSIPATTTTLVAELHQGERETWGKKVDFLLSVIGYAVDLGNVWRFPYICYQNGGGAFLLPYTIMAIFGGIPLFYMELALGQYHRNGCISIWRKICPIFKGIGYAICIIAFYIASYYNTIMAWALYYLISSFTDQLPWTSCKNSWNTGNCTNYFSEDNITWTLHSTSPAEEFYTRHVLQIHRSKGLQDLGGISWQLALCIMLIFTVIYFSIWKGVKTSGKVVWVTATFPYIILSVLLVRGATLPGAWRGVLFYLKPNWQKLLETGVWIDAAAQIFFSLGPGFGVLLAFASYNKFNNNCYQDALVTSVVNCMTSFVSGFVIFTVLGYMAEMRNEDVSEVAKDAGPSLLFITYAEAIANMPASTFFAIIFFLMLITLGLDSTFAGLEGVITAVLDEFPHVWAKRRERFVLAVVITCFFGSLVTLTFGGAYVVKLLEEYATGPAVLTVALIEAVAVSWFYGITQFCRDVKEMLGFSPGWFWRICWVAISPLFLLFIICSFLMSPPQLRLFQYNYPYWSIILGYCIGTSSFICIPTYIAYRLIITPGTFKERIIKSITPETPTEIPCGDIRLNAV
Sequence of μ-Opioid receptor (Rattus norvegicus, UniProt P33535) (P33535 whole entry): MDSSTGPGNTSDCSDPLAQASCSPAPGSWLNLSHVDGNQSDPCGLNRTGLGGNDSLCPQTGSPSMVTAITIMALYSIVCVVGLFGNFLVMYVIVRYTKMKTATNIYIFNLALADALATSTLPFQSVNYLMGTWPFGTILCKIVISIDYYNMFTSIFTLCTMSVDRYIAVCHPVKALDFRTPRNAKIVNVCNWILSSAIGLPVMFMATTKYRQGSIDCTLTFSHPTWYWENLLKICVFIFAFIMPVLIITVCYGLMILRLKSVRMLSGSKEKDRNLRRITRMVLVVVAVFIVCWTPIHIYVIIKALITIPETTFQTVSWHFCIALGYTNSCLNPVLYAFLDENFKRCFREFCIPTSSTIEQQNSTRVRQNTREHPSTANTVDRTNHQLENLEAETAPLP

Compound `CN(C)C[C@@H]1CCCC[C@H]1c1cccc(O)c1.Cl` [(1R,2R)-3-(2-dimethylaminomethyl-cyclohexyl)-phenol; hydrochloride] has a Ki (μ-Opioid receptor [1]) of 38 nM, a Ki (NA uptake) of 160 nM and a Ki (5HT uptake) of 50 nM. The “Duration of immobility % change compared with the solvent control” value (“Duration of immobility % change” below) (duration of immobility; [4]) was “+6%”, the “Duration of immobility (in words)” value (duration of immobility; after pretreatment with naloxone) was “marked decrease in the duration of immobility” and the “Duration of immobility compared with the solvent control (in words)” value (duration of immobility; without naloxone pretreatment) was “only a slight change in the duration of immobility”.
With `C=CCN1CC[C@]23c4c5ccc(O)c4O[C@H]2C(=O)CC[C@@]3(O)[C@H]1C5` [Naloxone, naloxone] the “Duration of immobility % change” value (duration of immobility; 1.0 mg/kg i.v.) was −15%.
For `CN(C)CCCN1c2ccccc2CCc2ccccc21` [Imipramine, imipramine], the “Duration of immobility % change” value (duration of immobility; 31.6 mg/kg i.p., 30 minutes before the test) was −61%.
`CN1CC[C@]23c4c5ccc(O)c4O[C@H]2[C@@H](O)C=C[C@H]3[C@H]1C5` [Morphine, morphine] was tested, and the “Duration of immobility % change” value (duration of immobility; [4]) was “+90%”, the “Duration of immobility % change” value (duration of immobility; 10.0 mg/kg i.p., 30 minutes before the test) was “+145%” and the “Duration of immobility % change” value (duration of immobility; 21.5 mg/kg i.p., 30 minutes before the test) was “+169%”.
With `CNCCCN1c2ccccc2CCc2ccccc21` [Desipramine, desipramine] the “μ-Opioid receptor Ki values” (μ-Opioid receptor [2]) was “inactive”.
In the case of `CNCCC(Oc1ccc(C(F)(F)F)cc1)c1ccccc1` (stereo not shown) [Fluoxetine, fluoxetine], the “μ-Opioid receptor Ki values” (μ-Opioid receptor [2]) is reported as “inactive”.
`CNC[C@@H]1CCCC[C@H]1c1cccc(O)c1` [(1R,2R)-3-(2-methylaminomethyl-cyclohexyl)-phenol, hydrochloride] gave a Ki (μ-Opioid receptor [3]) of 910 nM, a Ki (NA uptake) of 560 nM and a Ki (5HT uptake) of 9410 nM.
